In PubChem BioAssay AID179 (DTP/NCI, 2004):
The source made the active and inactive calls.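 The calls were made as follows: active = compounds giving half or more protection of infected cells from virus-caused growth loss, again on retest; inactive = the rest.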

Test system: CEM cells HIV-1 protection, formazan growth assay
Assay: NCI AIDS Antiviral Assay
Conditions: for IC50: measured here: growth of uninfected CEM cells
Experimental: The ability of compounds to protect human CEM cells from HIV-1 infection is measured as a screen for new compounds capable of inhibiting the HIV virus. Five concentrations of drug were tested on uninfected and infected cells and cell growth was measured using a soluble formazan assay. […] Compounds that provided at least 50% protection were retested. Compounds that provided at least 50% protection on retest were listed as moderately active. Compounds that reproducibly provided 100% protection were listed as confirmed active. […] Note that the inability to provide protection could be due to toxicity.

Row | SMILES | EC50 [µM] | IC50 [µM] | outcome
1 | CC(=O)N(CCc1ccccc1)C(C#N)c1ccc(OCCCCCCCCCCOc2ccc(C(C#N)N(CCc3ccccc3)C(C)=O)cc2)cc1 (stereo not given) | > 100 | > 100 | 
2 | O=C(NCc1ccccc1)C1C(=O)C(=O)N(Cc2ccccc2)C1=O (stereo not given) | > 269 | > 269 | 
3 | COc1ccc(-c2cc(C(=O)Nc3cc(C(F)(F)F)cc(C(F)(F)F)c3)c3ccccc3n2)cc1 | > 14.8 | > 14.8 | 
4 | O=C(Nc1ccc2oc3ccc(Cl)cc3c(=O)c2c1)c1ccc(Cl)cc1Cl | > 12.3 | > 12.3 | 
5 | CCOC(=O)C(O)(C(=O)OCC)c1cc(C(C)(C)C)c(O)c(C(C)(C)C)c1 | > 200 | 83.2 | 
6 | c1cc(-c2ncc(-c3ccc4c(c3)CCCO4)o2)ccn1 | > 200 | 11.2 | 
7 | O=c1/c(=C/c2cccc([N+](=O)[O-])c2)sc2nc3ccccc3n12 |  |  | inactive
8 | N#C/C(=C\c1ccccc1)c1ccccc1[N+](=O)[O-] | > 200 | 12.6 | 
9 | CC(=O)C1Cn2c(nc3ccccc32)C[Se]1 (stereo not given) |  |  | inactive
10 | C/C=C/C(=O)[O-].N.N.N.N.N.[Co+3].[O-][Cl+3]([O-])([O-])[O-] |  |  | inactive
11 | COc1ccc(-c2oc3ccc(C)cc3c(=O)c2O)cc1 | > 52.5 | > 52.5 | 
12 | COc1ccc(/C=C/C(=O)c2sc(N)nc2C)cc1 | > 912 | 479 | 
13 | CCCCNc1cc(Nc2ccc(Br)cc2)nc(N)n1 | > 2 | 1.07 | 
14 | COc1ccc(/C(=N/Nc2nc3ccccc3n2Cc2ccccc2)C(=O)O)cc1 | > 200 | 4.27 | 
15 | N#C/C(C(=O)Nc1ccc(Cl)cc1)=C(/N)N1CCOCC1 | > 200 | > 200 | 
16 | CCOC(=O)C1=C(OC(OCC)C(CC)[Se]c2ccccc2)CCC1 (stereo not given) | > 45.7 | > 45.7 | 
17 | CC1=Nc2ccccc2NC2(C1)C(C1COC(C)(C)O1)OC1OC(C)(C)OC12 (stereo not given) |  |  | inactive
18 | S=P(c1ccccc1)(c1ccccc1)C1(C2(P(=S)(c3ccccc3)c3ccccc3)CC2)CC1 | > 10 | > 10 | 

Row | SMILES | EC50 [µM] | IC50 [µM] | outcome
19 | C/C=C1/C=CC2c3[nH]c4ccccc4c3CCN2C1 (stereo not given) | > 145 | 93.3 | 
20 | Cn1nccc2c(=O)n(C)c(=O)nc1-2 | > 200 | > 200 | 
21 | O=C1C=CC(c2ccccc2)(c2ccccc2)O1 | > 200 | 151 | 
22 | CC/C=C(\C)C(CCC)(CN=O)C(=O)OCC (stereo not given) |  |  | inactive
23 | COC(=O)C(=O)C(C(=O)C(=O)Nc1ccc(F)cc1)c1nc2ccc([N+](=O)[O-])cc2[nH]c1=O (stereo not given) | > 550 | 245 | 
24 | Cc1nc(N(C(C)C)C(C)C)c(C(C)C)o1 | > 200 | > 200 | 
25 | O=C1OC(=O)C2=C1CCc1ccccc12 |  |  | inactive
26 | CCCC(CCC(=O)O)(CCC(=O)O)[N+](=O)[O-] |  |  | inactive
27 | CCOC(=O)/C(=C\n1c(=O)[nH]c(=O)[nH]c1=S)C(=O)c1ccccc1 |  |  | inactive
28 | N#C/C(=C\c1cccc(OCc2ccccc2)c1)c1ccc([N+](=O)[O-])cc1 | > 200 | 151 | 
29 | Cc1nnc(NS(=O)(=O)c2ccc(N=Nc3cc(N=Nc4ccc(S(=O)(=O)Nc5nnc(C)s5)cc4)c4c(NC(=O)C(Cl)Cl)cccc4c3OC(=O)C(Cl)Cl)cc2)s1 (tested in a mixture with another compound) |  |  | inactive
30 | Cc1ccc2c(c1)C(=S)N1CSCC1c1nncn1-2 (stereo not given) | > 200 | > 200 | 
31 | CC(C)c1ccc(C(c2ccc(OCC(=O)NCCN(C)C)cc2)c2ccc(C(C)C)cc(=O)c2O)c(O)c(=O)c1 |  |  | inactive
32 | Cc1cc(=O)[nH]c(NNC(C#N)c2cccc(O)c2)n1 (stereo not given) | > 347 | 123 | 
33 | O=C(Nc1ccc(C(F)(F)F)cc1[N+](=O)[O-])C(=O)C(C(=O)c1ccc2ccccc2c1)C1OC(=O)c2ccccc21 (stereo not given) | > 64.6 | 33.9 | 
34 | c1ccc2c(c1)NC1=C(CSCC1)c1nncn1-2 | > 200 | > 200 | 
35 | Oc1[nH]c2ccccc2c1N=Nc1nc(-c2ccccc2)cs1 | > 200 | > 200 | 
